Details: Liquid; for mass density: Buoyancy - hydrostatic balance with magnetic suspension - one sinker

C=CCCCCC [1-heptene]
Details | mass density [kg/m3] | viscosity [mPa·s]
298.15 K, 98 kPa | 694.51 | 0.362
298.15 K, 24510 kPa | 718.23 | 0.451
298.15 K, 49030 kPa | 734.7 | 0.544
298.15 K, 98060 kPa | 765.58 | 0.739
298.15 K, 147100 kPa | 783.57 | 0.942
298.15 K, 196130 kPa | 800.85 | 1.226
298.15 K, 245160 kPa | 816.79 | 1.499
303.15 K, 98 kPa | 689.57 | 0.346
303.15 K, 24510 kPa | 715 | 0.431
303.15 K, 49030 kPa | 733.1 | 0.52
303.15 K, 98060 kPa | 761.82 | 0.706
303.15 K, 147100 kPa | 780.46 | 0.903
303.15 K, 196130 kPa | 797.46 | 1.162
303.15 K, 245160 kPa | 815.3 | 1.429
312.83 K, 98 kPa | 680.92 | 0.314
322.39 K, 98 kPa | 672.17 | 0.288
327.47 K, 24510 kPa | 697.97 | 0.351
327.48 K, 98060 kPa | 746.71 | 0.575
327.49 K, 98 kPa | 668.07 | 0.278
327.49 K, 49030 kPa | 718.4 | 0.429
327.63 K, 147100 kPa | 767.87 | 0.741
327.63 K, 196130 kPa | 786.42 | 0.925
327.67 K, 245160 kPa | 805.58 | 1.136
340.21 K, 98 kPa | 655.95 | 0.251
354.73 K, 98 kPa | 643.5 | 0.224
359.63 K, 245160 kPa | 791.61 | 0.883
359.74 K, 147100 kPa | 750.76 | 0.587
359.75 K, 196130 kPa | 773.85 | 0.726
359.87 K, 98060 kPa | 730.37 | 0.457
359.96 K, 49030 kPa | 699.31 | 0.34
360.03 K, 98 kPa | 638.93 | 0.215
360.06 K, 24510 kPa | 672.86 | 0.278
392.4 K, 245160 kPa | 776.73 | 0.709
392.46 K, 196130 kPa | 758.9 | 0.591
392.61 K, 147100 kPa | 734.09 | 0.48
392.68 K, 49030 kPa | 676.29 | 0.277
392.74 K, 98060 kPa | 714.89 | 0.377
392.79 K, 24510 kPa | 646.48 | 0.226
423.82 K, 196130 kPa | 745.35 | 0.489
424.04 K, 147100 kPa | 717.45 | 0.4
424.07 K, 245160 kPa | 760.78 | 0.574
424.11 K, 24510 kPa | 619.97 | 0.182
424.17 K, 49030 kPa | 653.79 | 0.226
424.17 K, 98060 kPa | 697.03 | 0.311
452.22 K, 196130 kPa | 733.49 | 0.434
452.25 K, 98060 kPa | 676.86 | 0.28
452.27 K, 245160 kPa | 750.38 | 0.503
452.28 K, 147100 kPa | 702.95 | 0.355
452.34 K, 49030 kPa | 628.89 | 0.198
452.35 K, 24510 kPa | 595.84 | 0.16
473.28 K, 196130 kPa | 723.12 | 0.407
473.33 K, 147100 kPa | 692.3 | 0.333
473.35 K, 245160 kPa | 737.15 | 0.47
473.47 K, 98060 kPa | 665.45 | 0.262
473.56 K, 49030 kPa | 612.5 | 0.183
473.7 K, 24510 kPa | 578.48 | 0.148

From the NIST ThermoML archive (doi:10.1021/je401015e)
